Results on 19 compounds are retold here after patent US9394268B2, “(E)-1-(5-methoxy-2,2-dimethyl-2H-chromen-8-yl)-3-(4-methoxyphenyl)prop-2-en-1-one and analogs thereof, as well as preparation method and use thereof” (Sichuan University, priority 2012, dated 2016).

Where only a bound is given, the exact number is not on record here.

Common to all, as to type: cell-based
In one assay the test system is HepG2. Description: Cell proliferative assay (MTT), HepG2. The following applies: Homo sapiens, 72 h incubation, read-out: IC50s HepG2. As to the method:
(§1) The synthesized compounds were evaluated for their cytotoxin activity against suspended tumor cells. These cells were seeded on 96-well plates and incubated for 24 h. Selected compounds were added at various doses and incubated for 72 h, MTT was then added, and the absorbance was measured at a wavelength of 590 nm. IC50 values are expressed as the mean±SEM from the dose-response curves of at least three independent experiments.

In another assay the test system is K562. Nature of the assay: Cell proliferative assay (MTT), K562. Particulars: Homo sapiens, 72 h incubation, read-out: IC50s K562. As to the method: as §1
The test system of a further assay is A549. Description: Cell proliferative assay (MTT), A549. Particulars: Homo sapiens, 72 h incubation, read-out: IC50s A549. The protocol:
as §1

In another assay the test system is A375. Description: Cell proliferative assay (MTT), A375. Particulars: Homo sapiens, A-375, 72 h incubation, read-out: IC50s A375. The protocol: as §1
The next assay concerns SMMC-7221. Nature of the assay: Cell proliferative assay (MTT), SMMC-7221. Particulars: 72 h incubation, read-out: IC50s SMMC-7221. As to the method:
as §1

The next assay relates to LO2. Nature of the assay: Cell proliferative assay (MTT), LO2. Particulars: Homo sapiens, L02, 72 h incubation, read-out: IC50s LO2. As to the method: as §1

Turning to `COc1ccc(/C=C/C(=O)c2ccc(OC)c3c2OC(C)(C)C=C3)cc1OC(=O)CCCc1ccc(N(CCCl)CCCl)cc1` [SKLBC-65, (E)-2-methoxy-5-(3-(5-methoxy-2,2-dimethyl-2H-chromen-8-yl)-3-oxoprop-1-en-1-yl)phenyl 4-(4-(bis(2-chloroethyl)amino)phenyl)butanoate], the IC50 in the assay on HepG2 was 2.1 µM; in the assay on K562 it was 0.6 µM; in the assay with A549, 0.55 µM; in the assay with A375, 3.8 µM; in the assay on SMMC-7221, 0.98 µM; in the assay on LO2 it was > 10 µM.

Regarding `COc1ccc(/C=C/C(=O)c2ccc(OC)c3c2OC(C)(C)C=C3)cc1OC(=O)Cc1ccc(Cl)c(Cl)c1` [SKLBC-67, (E)-2-methoxy-5-(3-(5-methoxy-2,2-dimethyl-2H-chromen-8-yl)-3-oxoprop-1-en-1-yl)phenyl 2-(3,4-dichlorophenyl)acetate], the IC50 with HepG2 came out at 0.195 µM; with K562 it was 0.43 µM; with A549, 0.86 µM; in the assay with A375, 0.105 µM; with SMMC-7221, 1.9 µM; in the assay with LO2, 10 µM.

Consider `COc1ccc(/C=C/C(=O)c2ccc(OC)c3c2OC(C)(C)C=C3)cc1OC(=O)c1ccco1` [SKLBC-68, (E)-2-methoxy-5-(3-(5-methoxy-2,2-dimethyl-2H-chromen-8-yl)-3-oxoprop-1-en-1-yl)phenyl furan-2-carboxylate], for which the IC50 was 0.068 µM in the assay on HepG2; 0.245 µM in the assay on K562; 0.8 µM in the assay with A549; 0.68 µM in the assay with A375; 1.62 µM in the assay on SMMC-7221; > 10 µM in the assay with LO2.

Consider `COc1ccc(/C=C/C(=O)c2ccc(OC)c3c2OC(C)(C)C=C3)cc1OS(=O)(=O)c1ccc(C)cc1` [SKLBC-69, (E)-2-methoxy-5-(3-(5-methoxy-2,2-dimethyl-2H-chromen-8-yl)-3-oxoprop-1-en-1-yl)phenyl 4-methylbenzenesulfonate], for which the IC50 was 3.6 µM in the assay on HepG2; 7.85 µM with K562; 8.6 µM in the assay with A549; 2.4 µM in the assay with A375; 9.2 µM in the assay with SMMC-7221; > 10 µM with LO2.

As to `COc1ccc(/C=C/C(=O)c2ccc(OC)c3c2OC(C)(C)C=C3)cc1OS(=O)(=O)Cc1ccccc1` [SKLBC-70, (E)-2-methoxy-5-(3-(5-methoxy-2,2-dimethyl-2H-chromen-8-yl)-3-oxoprop-1-en-1-yl)phenyl phenylmethanesulfonate], the IC50 in the assay with HepG2, in the assay with K562, with A549, with A375, in the assay on SMMC-7221 and with LO2 was > 10 µM in each case.

For `COc1ccc(/C=C/C(=O)c2ccc(OC)c3c2OC(C)(C)C=C3)cc1OCC=C(C)C` [SKLBC-71, (E)-1-(5-methoxy-2,2-dimethyl-2H-chromen-8-yl)-3-(4-methoxy-3-((3-methylbut-2-en-1-yl)oxy)phenyl)prop-2-en-1-one], the IC50 with HepG2 was 0.58 µM; in the assay on K562 it was 0.62 µM; in the assay on A549, 1.2 µM; with A375, 2.2 µM; in the assay on SMMC-7221, 0.87 µM; in the assay with LO2 it was > 10 µM.

On to `C=CCOc1cc(/C=C/C(=O)c2ccc(OC)c3c2OC(C)(C)C=C3)ccc1OC` [SKLBC-72, (E)-3-(3-(allyloxy)-4-methoxyphenyl)-1-(5-methoxy-2,2-dimethyl-2H-chromen-8-yl)prop-2-en-1-one], for which the IC50 with HepG2 was > 10 µM; with K562 it was > 10 µM; in the assay on A549, > 10 µM; in the assay with A375 it was > 10 µM; in the assay on SMMC-7221 it was > 10 µM; with LO2 it was > 20 µM.

For the compound `C#CCOc1cc(/C=C/C(=O)c2ccc(OC)c3c2OC(C)(C)C=C3)ccc1OC` [SKLBC-73, (E)-1-(5-methoxy-2,2-dimethyl-2H-chromen-8-yl)-3-(4-methoxy-3-(prop-2-yn-1-yloxy)phenyl)prop-2-en-1-one], the IC50 with HepG2 is > 10 µM; in the assay with K562, > 10 µM; in the assay with A549, > 10 µM; with A375, > 10 µM; with SMMC-7221, > 10 µM; in the assay with LO2, > 20 µM.

As for `COc1ccc(/C=C/C(=O)c2ccc(OC)c3c2OC(C)(C)C=C3)cc1OC(=O)CCl` [SKLBC-74, (E)-2-methoxy-5-(3-(5-methoxy-2,2-dimethyl-2H-chromen-8-yl)-3-oxoprop-1-en-1-yl)phenyl 2-chloroacetate], the IC50 with HepG2 is 0.09 µM; in the assay on K562, 0.202 µM; in the assay with A549 it was 0.226 µM; in the assay on A375, 0.245 µM; with SMMC-7221, 2.73 µM; in the assay with LO2, > 10 µM.

As for `C=CC(=O)Oc1cc(/C=C/C(=O)c2ccc(OC)c3c2OC(C)(C)C=C3)ccc1OC` [SKLBC-75, (E)-2-methoxy-5-(3-(5-methoxy-2,2-dimethyl-2H-chromen-8-yl)-3-oxoprop-1-en-1-yl)phenyl acrylate], the IC50 is 0.06 µM with HepG2; 0.295 µM in the assay with K562; 0.49 µM in the assay on A549; 0.19 µM with A375; 1.16 µM with SMMC-7221; > 10 µM in the assay on LO2.

`COc1ccc(/C=C/C(=O)c2ccc(OC)c3c2OC(C)(C)C=C3)cc1OS(C)(=O)=O` [SKLBC-77, (E)-2-methoxy-5-(3-(5-methoxy-2,2-dimethyl-2H-chromen-8-yl)-3-oxoprop-1-en-1-yl)phenyl methanesulfonate]: the IC50 in the assay with HepG2 was 9 µM; with K562 it was 9.24 µM; in the assay with A549, > 10 µM; in the assay with A375 it was > 10 µM; in the assay with SMMC-7221, > 10 µM; in the assay on LO2 it was > 10 µM.

In the case of `COc1ccc(/C=C/C(=O)c2ccc(OC)c3c2OC(C)(C)C=C3)cc1OC(=O)C12CC3CC(CC(C3)C1)C2` [SKLBC-78], the IC50 in the assay with HepG2 is 2.52 µM; in the assay on K562, 2.83 µM; with A549 it was 6.4 µM; with A375, 1.06 µM; in the assay on SMMC-7221 it was > 10 µM; in the assay with LO2, 5.58 µM.

As for `CCCCC(=O)Oc1cc(/C=C/C(=O)c2ccc(OC)c3c2OC(C)(C)C=C3)ccc1OC` [SKLBC-79, (E)-2-methoxy-5-(3-(5-methoxy-2,2-dimethyl-2H-chromen-8-yl)-3-oxoprop-1-en-1-yl)phenyl pentanoate], the IC50 in the assay with HepG2 is 0.09 µM; in the assay on K562, 0.24 µM; in the assay with A549, 1.18 µM; in the assay on A375, 0.378 µM; in the assay on SMMC-7221, 1.03 µM; with LO2, > 10 µM.

Take `COc1ccc(/C=C/C(=O)c2ccc(OC)c3c2OC(C)(C)C=C3)cc1OC(=O)C1CC1` [SKLBC-80, (E)-2-methoxy-5-(3-(5-methoxy-2,2-dimethyl-2H-chromen-8-yl)-3-oxoprop-1-en-1-yl)phenyl cyclopropanecarboxylate]: the IC50 in the assay on HepG2 was 0.118 µM; in the assay on K562, 0.41 µM; with A549, 1.32 µM; with A375, 0.383 µM; in the assay with SMMC-7221 it was 1.44 µM; with LO2, > 10 µM.

On to `COc1ccc(/C=C/C(=O)c2ccc(OC)c3c2OC(C)(C)C=C3)cc1OC(=O)C(C)C` [SKLBC-81, (E)-2-methoxy-5-(3-(5-methoxy-2,2-dimethyl-2H-chromen-8-yl)-3-oxoprop-1-en-1-yl)phenyl isobutyrate], for which the IC50 in the assay on HepG2 was 0.15 µM; with K562 it was 0.57 µM; in the assay with A549 it was 0.98 µM; in the assay with A375, 0.505 µM; with SMMC-7221 it was 2.63 µM; in the assay on LO2 it was > 10 µM.

In the case of `COc1ccc(/C=C/C(=O)c2ccc(OC)c3c2OC(C)(C)C=C3)cc1[N+](=O)[O-]` [SKLBC-82, (E)-1-(5-methoxy-2,2-dimethyl-2H-chromen-8-yl)-3-(4-methoxy-3-nitrophenyl)prop-2-en-1-one], the IC50 is > 10 µM in the assay on HepG2; > 10 µM in the assay on K562; > 10 µM with A549; > 10 µM in the assay with A375; > 10 µM with SMMC-7221; > 20 µM in the assay on LO2.

Consider `COc1ccc(/C=C/C(=O)c2ccc(OC)c3c2OC(C)(C)C=C3)cc1NO` [SKLBC-84, (E)-3-(3-(hydroxyamino)-4-methoxyphenyl)-1-(5-methoxy-2,2-dimethyl-2H-chromen-8-yl)prop-2-en-1-one], for which the IC50 with HepG2 is > 10 µM; in the assay with K562 it was > 10 µM; with A549, > 10 µM; in the assay with A375, > 10 µM; in the assay with SMMC-7221 it was > 10 µM; with LO2, > 20 µM.

For `CNc1cc(/C=C/C(=O)c2ccc(OC)c3c2OC(C)(C)C=C3)ccc1OC` [SKLBC-85, (E)-1-(5-methoxy-2,2-dimethyl-2H-chromen-8-yl)-3-(4-methoxy-3-(methylamino)phenyl)prop-2-en-1-one], the IC50 in the assay with HepG2 is > 10 µM; with K562, > 10 µM; with A549, > 10 µM; with A375, > 10 µM; with SMMC-7221, > 10 µM; with LO2, > 20 µM.

Consider `CCN(CC)c1cc(/C=C/C(=O)c2ccc(OC)c3c2OC(C)(C)C=C3)ccc1OC` [SKLBC-86, (E)-3-(3-(diethylamino)-4-methoxyphenyl)-1-(5-methoxy-2,2-dimethyl-2H-chromen-8-yl)prop-2-en-1-one], for which the IC50 was > 10 µM with HepG2; > 10 µM with K562; > 10 µM in the assay with A549; > 10 µM with A375; > 10 µM in the assay with SMMC-7221; > 20 µM with LO2.
